Experiments:
[1] = tested on: wounds of STZ induced diabetic rats; experiment: Excisional full-thickness skin wound healing in STZ induced diabetic rats (recovery rate); format: in vivo, Wistar rats
Method: Salsolinol ointments at 0.01 mg/g, 0.03 mg/g, 0.1 mg/g, and 0.3 mg/g were prepared respectively by dissolving 0.5 mg, 1.5 mg, 5 mg, and 15 mg of salsoinol in 2.5 mL of glycerol (Sigma Inc., MO, USA) plus 1.0 mL of Creagel emulsifier (First Chemical, TPE, Taiwan) and 45.5 mL of distilled water. Vehicle was composed of glycerol (2.5 mL), Creagel emulsifier (1.0 mL), and distilled water (45.5 mL).
Swivazin®-HN cream was used as positive control for treating the wounds of STZ induced diabetic rats, which contained asiaticoside (4 mg/g), isolated from Centella asiatica. […]. Ethnopharmacology 65 (1999): 1-11].
Adult male Wistar rats were used at four weeks of age, purchased from BioLASCO Taiwan, and were acclimatized in a room with 12-12 h light (7:00 A.M. to 7:00 P.M.)-dark (7:00 P.M. to 7:00 A.M.) cycle, a temperature of 23±1° C., and a humidity of 65±5%.
Each rat had free access to both water and standard rodent soft chow ad libitum. STZ was injected intraperitoneally at a dose of 65 mg/Kg body weight.
All experimental procedures were approved by and performed in compliance with the guidelines of the Institutional Animal Care and Use Committee (IACUC). All surgeries were conducted while animals were under continuous anesthesia with 4% isoflurane.
The dorsal skin was shaved and then disinfected with 10% povidone-iodine before an excisional full-thickness square-shaped skin wound (1.5×1.5 cm) was induced using a sterile wound maker. Animal was then housed alone in its cage to avoid any further wound damage.
. The groups were administered at the same amount once daily and the wounds were photopictured on Day 1, Day 3, Day 5, Day 7, Day 10, and Day 15 and the sizes of the wounds were analyzed using Visual Basic 6.0. Wound closure at experimental time points was calculated as percentage of initial wound area, called as “recovery rate.”

[2] = tested on: AMP-dependent protein kinase (AMPK); details: disclosed in U.S. patent application Ser. No. 14/492,547; cited from earlier work

| Compound | recovery rate (in words) ([1]; FIG. 2, salsolinol 0.01 mg/g, Day 7-15) | wound closure and healing ([1]; FIG. 2, salsolinol at all the concentrations (0.01, 0.03, 0.1, 0.3 mg/g)) | recovery rate (wound closure as percentage of initial wound area) ([1]; FIG. 2, salsolinol ointment 0.01 mg/g once daily, topical, Day 15) | difference in recovery between D+Salsolinol and Swivazin (DP, positive control) ([1]; FIG. 3) | recovery rate compared with groups without treatment (DC) or vehicle (DV) ([1]; FIG. 3, D+Salsolinol) | activation of AMPK [2] |
| --- | --- | --- | --- | --- | --- | --- |
| CC1NCCc2cc(O)c(O)cc21 (stereo not shown) [salsolinol] | relatively improved recovery rate | could enhance the wound closure and healing | over 97% | no obvious difference | significantly increased recovery rate | can activate AMP-dependent protein kinase (AMPK) |
| COc1ccc(C[C@H]2c3cc(O)c(OC)cc3CCN2C)cc1O [reticuline, reference compound] |  |  |  |  |  | can activate AMP-dependent protein kinase (AMPK) |

From patent US9655891B1, “Use of isoquinoline derivatives for diabetic wound healing” (ZIH YUAN TANG Biotechnology Co., Ltd, priority 2016, dated 2017)
